Entries after “also recorded” stand apart in the source; their conditions may differ.

Here are results for one compound from patent US7196105B2, “Treatment of human multiple myeloma by curcumin” (Research Development Foundation, priority 2002, dated 2007).

In experiment [1] the test system is NF-κB. Kind of experiment: Electrophoretic mobility shift assay (EMSA) for nuclear NF-κB in multiple myeloma cell lines. The class given is cell-based, human. Conditions: for time of complete downregulation of NF-κB: 50 μM curcumin. How it is done:
FIG. 1A: Dose response of NF-κB to curcumin treatment of U266 cells. […] FIG. 1B: Effect of exposure duration on curcumin-induced NF-κB suppression in U266 cells. […] FIG. 1C: Effect of exposure duration on curcumin-induced NF-κB suppression in MM.1 cells. Cells were treated as described in FIG. 1B. FIG. 1D: Effect of exposure duration on curcumin-induced NF-κB suppression in MM.1R cells. Cells were treated as described in FIG. 1B. FIG. 1E: Effect of exposure duration on curcumin-induced NF-κB suppression in RPMI 8226. Cells were treated as described in FIG. 1B. FIG. 1F: […] Nuclear extracts were prepared from U266 cells (2×10^6/ml), incubated for 30 min with different antibodies or unlabeled NF-κB oligonucleotide probe, and then assayed for NF-κB by EMSA. […] U266 cells (2×10^6 cells/ml) were treated with indicated concentrations of NEMO-control or NBD-peptide (100 μM) for the indicated times. Nuclear extracts were then checked for the presence of NF-κB DNA-binding activity by EMSA. […] Untreated or NBD-peptide-treated (100 μM; 12 h) U266 cells were cytospun, and p65 immunocytochemistry was performed as described. Red stain indicates the localization of p65 and blue stain indicates nucleus (magnification 200×). […] U266 cells (2×10^6 cells/ml) were treated with indicated concentrations of NEMO-control or NBD-peptide (100 μM) for the indicated time periods, and cell viability was monitored by the trypan blue dye exclusion method. Percent cell killing was determined as: (number of trypan blue stained cells/total cells)×100. Nuclear extracts were prepared according to Bharti et al. (2003). Briefly, 2×10^6 cells were washed with cold PBS and suspended in 0.4 ml of hypotonic lysis buffer containing protease inhibitors for 30 min. The cells were then lysed with 12.5 μl of 10% Nonidet P-40. […] The nuclear pellet was resuspended in 25-μl ice-cold nuclear extraction buffer. After 30 min of intermittent mixing, the extract was centrifuged, and supernatants containing nuclear extracts were collected. Protein content was measured by the Bradford method. […] NF-kB activation was analyzed by electrophoretic mobility gel shift assay (EMSA) as described previously (Chaturvedi et al., 1994). […] Radioactive bands from the dried gels were visualized and quantitated by Phosphorlmager (Molecular Dynamics, Sunnyvale, Calif.) using ImageQuant software.
For orientation: A gel shift assay detects complexes by their altered migration in electrophoresis.

Experiment [2] relates to CD138+ cells from multiple myeloma patients. As to the kind of experiment: Viability of bone marrow CD138+ cells from multiple myeloma patients (MTT or trypan blue). Conditions: 24 h. The class given is cell-based, human. How it is done:
(§1) Briefly, cells (5000/well) were incubated in triplicate in a 96-well plate in the presence or absence of indicated test samples in a final volume of 0.1 ml for 24 h at 37° C. Thereafter, 0.025 ml of MTT solution (5 mg/ml in PBS) was added to each well. After a 2 h incubation at 37 ° C., 0.1 ml of extraction buffer (20% SDS, 50% dimethylformamide) was added. Incubation was continued for overnight at 37 ° C., and then the OD at 590 nm was measured using a 96-well multiscanner autoreader (Dynatech MR 5000), with extraction buffer as blank. Percent cell viability=(OD of the experiment samples/OD of the control)×100.

In experiment [3] the test system is U266 cells. As to the kind of experiment: Cell viability by MTT method. The format is cell-based, human. Conditions: U266, 24 h, different concentrations. Here is the method: The results are shown as the mean (±s.d.) percent viability from triplicate cultures.
as §1
Background: Tetrazolium assays rely on reduction of a dye to a coloured formazan, in cell work by metabolically active cells.

Experiment [4] concerns U266. Kind of experiment: Growth of cells, viable cell count by trypan blue dye exclusion. The format is cell-based. Conditions: Homo sapiens, U-266; U266, curcumin 1 μM. From the text:
The results are shown as the mean (±s. d.) cell count from triplicate cultures.

Experiment [5] deals with T1, IκB kinase (Homo sapiens, UniProt O14920+O15111).
T1 construct: 200 μg cytoplasmic extracts were immunoprecipitated with 1 μg of anti-IKKa and IKKb antibodies each; endogenous in cells; host or cells: U266 human multiple myeloma cells (cytoplasmic extract, immunoprecipitate on protein A/G-Sepharose)
T1 sequence (O15111 whole entry): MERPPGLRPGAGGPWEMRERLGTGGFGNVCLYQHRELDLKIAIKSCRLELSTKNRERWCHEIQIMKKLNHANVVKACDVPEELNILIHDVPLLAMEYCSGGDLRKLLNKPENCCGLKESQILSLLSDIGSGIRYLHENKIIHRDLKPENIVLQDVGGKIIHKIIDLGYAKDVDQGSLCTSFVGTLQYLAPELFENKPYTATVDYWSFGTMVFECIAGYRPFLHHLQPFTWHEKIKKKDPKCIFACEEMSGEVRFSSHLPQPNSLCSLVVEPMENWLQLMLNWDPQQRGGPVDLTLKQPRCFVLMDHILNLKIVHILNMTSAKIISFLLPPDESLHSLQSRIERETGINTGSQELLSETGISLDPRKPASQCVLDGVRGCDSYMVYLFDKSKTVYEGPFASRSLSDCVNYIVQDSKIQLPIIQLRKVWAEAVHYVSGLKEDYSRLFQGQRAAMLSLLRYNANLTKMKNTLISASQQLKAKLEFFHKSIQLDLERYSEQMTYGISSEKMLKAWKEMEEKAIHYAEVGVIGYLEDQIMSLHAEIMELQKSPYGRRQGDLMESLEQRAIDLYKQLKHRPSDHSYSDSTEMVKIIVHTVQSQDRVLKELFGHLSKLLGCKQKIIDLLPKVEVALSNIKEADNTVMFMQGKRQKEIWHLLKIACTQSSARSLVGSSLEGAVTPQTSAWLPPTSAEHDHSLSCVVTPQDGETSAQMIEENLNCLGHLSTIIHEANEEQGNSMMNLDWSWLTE
T1 sequence (O14920 whole entry): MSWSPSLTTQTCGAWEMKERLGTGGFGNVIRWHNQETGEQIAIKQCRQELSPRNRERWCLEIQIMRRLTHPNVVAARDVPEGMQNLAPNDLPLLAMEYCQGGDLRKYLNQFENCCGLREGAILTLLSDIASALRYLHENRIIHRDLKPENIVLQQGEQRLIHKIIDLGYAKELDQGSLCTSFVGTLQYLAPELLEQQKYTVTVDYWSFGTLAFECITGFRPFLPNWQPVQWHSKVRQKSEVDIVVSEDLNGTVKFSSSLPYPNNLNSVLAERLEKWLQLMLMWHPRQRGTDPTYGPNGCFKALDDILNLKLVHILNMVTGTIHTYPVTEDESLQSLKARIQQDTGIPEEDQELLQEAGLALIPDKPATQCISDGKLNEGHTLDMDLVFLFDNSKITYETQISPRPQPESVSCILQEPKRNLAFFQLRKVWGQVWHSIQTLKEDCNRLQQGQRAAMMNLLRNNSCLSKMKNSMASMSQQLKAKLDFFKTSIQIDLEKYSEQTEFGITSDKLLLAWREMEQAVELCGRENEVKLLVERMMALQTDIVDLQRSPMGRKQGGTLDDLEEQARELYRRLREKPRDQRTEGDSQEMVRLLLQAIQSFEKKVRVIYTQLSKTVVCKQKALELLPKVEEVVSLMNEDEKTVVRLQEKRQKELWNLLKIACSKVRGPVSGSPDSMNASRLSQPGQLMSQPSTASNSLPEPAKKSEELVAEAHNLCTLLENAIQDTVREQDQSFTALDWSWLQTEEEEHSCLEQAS
T1 sequence (Q9Y6K9 whole entry partner): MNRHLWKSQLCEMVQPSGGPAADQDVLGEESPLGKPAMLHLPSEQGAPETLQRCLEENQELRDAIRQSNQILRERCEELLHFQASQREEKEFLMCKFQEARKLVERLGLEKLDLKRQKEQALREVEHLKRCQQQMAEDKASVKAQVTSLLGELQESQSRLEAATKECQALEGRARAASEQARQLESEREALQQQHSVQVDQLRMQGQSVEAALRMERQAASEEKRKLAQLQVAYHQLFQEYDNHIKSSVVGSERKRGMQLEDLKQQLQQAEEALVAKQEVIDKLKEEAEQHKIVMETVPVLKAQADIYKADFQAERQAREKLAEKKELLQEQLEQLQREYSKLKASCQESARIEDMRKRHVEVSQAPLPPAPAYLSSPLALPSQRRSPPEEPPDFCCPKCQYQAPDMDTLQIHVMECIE
As to the kind of experiment: IκB kinase assay on IKK immunoprecipitated from curcumin-treated U266 cells. The class given is cell-based. Conditions: curcumin 50 μM, time course, GST-IκBα substrate. How it is done:
Five million U266 cells/2.5 ml were treated with curcumin (50 μM) for the indicated times and cytoplasmic extracts were prepared. FIG. 3A: Level of phosphorylated IκBα determined by Western blotting. FIG. 3B: Immunoprecipitated IκB kinase and kinase assay of IκB kinase activity (upper panel) or Western blotting for the analysis of total IKKα and IKKβ proteins in cytoplasmic extracts (lower panel). FIG. 3C: IκB kinase was immunoprecipitated and kinase assay was performed in the absence or presence of the indicated concentrations of curcumin (upper panel). Lower panel indicates the amount of GST-IκBα protein stained with Coomassie Blue in each well in the same dried gel.
The IkB kinase assay was performed with a modified method as described earlier (Manna et al., 2000). Briefly, 200 μg cytoplasmic extracts were immunoprecipitated with 1 μg of anti-IKKa and IKKb antibodies each, and the immune complexes so formed were precipitated with 0.01 ml of protein A/G-Sepharose beads for 2 hour. The beads were washed first with lysis buffer and then with kinase assay buffer (50 mM HEPES pH 7.4, 20 mM MgCl2, and 2 mM DTT). The immune complex was then assayed for kinase activity using kinase assay buffer containing […] [g-P^32]ATP, 10 μM unlabeled ATP, and 2 μg/sample glutathione S-transferase-IkBa (1–54). […] Radioactive bands of the dried gel were visualized and quantitated by PhosphorImager.

Experiment [6] relates to Bcl-2. Kind of experiment: Western blot for NF-κB-regulated gene product Bcl-2 in U266 cells. The format is cell-based, human. Conditions: curcumin 50 μM. How it is done:
Sixty micrograms of cytoplasmic extracts were resolved on 10% SDS-PAGE gel, electrotransferred on a nitrocellulose membrane, and probed for the following: IκBα (FIG. 4A); Bcl-2 (FIG. 4B); Bcl-xL (FIG. 4C) and cyclin D1 (FIG. 4D). The same blots were stripped and reprobed with anti-β-actin antibody to show equal protein loading (lower panel in each figure). FIG. 4E: […] U266, MM.1 or RPMI 8226 cells (1×10^7) were treated with curcumin ([…]) in 5 ml of medium for the indicated times. Supernatants were harvested and concentrated approximately 20×, and IL-6 was quantitated by an IL-6 ELISA kit. Values shown were normalized to 1 ml of un-concentrated supernatants. Thirty to fifty micrograms of cytoplasmic protein extracts prepared as described (Chaturvedi et al., 2000) were resolved on 10% SDS-PAGE gel. After electrophoresis, the proteins were electrotransferred to a nitrocellulose membrane, blocked with 5% nonfat milk, and probed with antibodies against either IkBa, phospho-IkBa, Bcl-2, Bcl-xL, or cyclin D1 (1:3000) for 1 h. Thereafter, the blot was washed, exposed to HRP-conjugated secondary antibodies for 1 h, and finally detected by chemiluminescence (ECL, Amersham Pharmacia Biotech., Arlington Heights, Ill.).
A general note: In western blotting, separated proteins are transferred to a membrane and probed.

The inhibition is the drop in the measured response relative to a control, in per cent. Consider `COc1cc(/C=C/C(=O)CC(=O)/C=C/c2ccc(O)c(OC)c2)ccc1O` [curcumin, diferuloylmethane], for which the “time of complete downregulation of NF-κB” value in experiment [1] (MM.1 cells), in experiment [1] (MM.1R cells) and in experiment [1] (U266 cells) was 4 h in each case. For the same compound, the “concentration sufficient to fully suppress constitutive NF-κB activation” value in experiment [1] (U266 cells, 4 h, EMSA) was found to be 50 µM. Further, the cell survival entry in experiment [2] (patient #20, indicated concentrations, MTT) is “much more effective in inhibiting the survival of multiple myeloma cells than dexamethasone”; in experiment [2] (patients #7, #9 and #10, different concentrations), “decreased cell survival in a dose-dependent manner”. The “cell viability / mitochondrial activity (MTT)” value in experiment [3] is given as “suppressed mitochondrial activity; also recorded: decreased cell survival in a dose-dependent manner”. For the same compound, testing at 1 µM in experiment [4] gave an inhibition of 27%. Moreover, the “IκB kinase activity of IKK immunoprecipitated from treated cells” value in experiment [5] is “decreased in kinase activity”. In addition, the “time to lowest level (complete decline) of Bcl-2” value in experiment [6] is ≤ 8 h.
